The values below come from ChEMBL document CHEMBL1201862, “PubChem BioAssay data set” (2004).

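Growth conditions: 96-well plates. Treatment: test compound, 48 hours, 5 concentrations. Analysis: linear interpolation between bracketing concentrations; unreached endpoints set to highest concentration. GI50 is the concentration that inhibits growth by half.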 Active and inactive are the calls of the source. Rule as the data show it: active = GI50 up to about 1.1 µM and inactive = higher.

Among the test systems are A549; ACHN; HCT-116; HCT-15; HOP-62; MOLT-4; NCI-H226; NCI-H23; NCI-H522; SF-295; SNB-19; SNB-75; SR; SW-620; CCRF-CEM.
What all share (assay): DTP human tumour cell line panel, 48 h

As to `COc1cccc(/C=C2\CCC(C)(CN(C)C)C2=O)c1` (stereo not given), the GI50 with A549 is > 100 µM (inactive); in the experiment with ACHN it was 98.9 µM (inactive); in the experiment with HCT-116, 58.2 µM (inactive); in the experiment with HCT-15, 35.6 µM; with HOP-62, > 100 µM (inactive); in the experiment on MOLT-4, 48.6 µM (inactive). For the same compound, the GI50 was > 100 µM (inactive) with NCI-H226; > 100 µM (inactive) in the experiment with NCI-H23; 30.7 µM (inactive) with NCI-H522; > 100 µM (inactive) with SF-295; 34.4 µM (inactive) in the experiment on SNB-19; > 100 µM (inactive) with SNB-75. In addition, the values for the GI50 in the experiment on SR and in the experiment with SW-620 were 74.3 µM (inactive) and 57 µM (inactive), respectively.
`CCOc1ccccc1NC(=O)CC1Sc2ccccc2NC1=O` (stereo not given): the GI50 in the experiment on A549 is 82.2 µM (inactive); in the experiment with ACHN, 75.9 µM (inactive); with CCRF-CEM it was 31.8 µM (inactive); in the experiment on HCT-116, > 100 µM (inactive); in the experiment with HCT-15, 53 µM; with HOP-62, 73.3 µM (inactive). The GI50 is 41.5 µM (inactive) with MOLT-4; > 100 µM (inactive) with NCI-H226; 61.2 µM (inactive) in the experiment with NCI-H23; 27.4 µM (inactive) in the experiment with NCI-H522; 43.6 µM (inactive) with SF-295; > 100 µM (inactive) in the experiment with SNB-19. Besides, the GI50 in the experiment on SNB-75 is 31.2 µM (inactive); with SR, 21 µM (inactive); in the experiment on SW-620 it was 49.2 µM (inactive).
With `CN1C(c2ccccc2)CC(=Nc2ccccc2)CC1c1ccccc1` (stereo not given), the GI50 was 11.5 µM (inactive) with A549; 16.2 µM (inactive) with CCRF-CEM; 4.91 µM (inactive) in the experiment with HCT-116; 16.1 µM in the experiment on HCT-15; 18 µM (inactive) with HOP-62; 7.13 µM (inactive) in the experiment on MOLT-4. The GI50 in the experiment on NCI-H226 is 11.7 µM (inactive); in the experiment with NCI-H23, 15.6 µM (inactive); in the experiment with NCI-H522, 4.65 µM (inactive); in the experiment on SF-295, 15.6 µM (inactive); in the experiment with SNB-19 it was 14.3 µM (inactive); in the experiment on SNB-75, 16.7 µM (inactive). In addition, the GI50 with SR is 10.9 µM (inactive); in the experiment on SW-620, 10.8 µM (inactive).
On to `CN(C)CC1CCC/C1=N/OC(=O)c1ccccc1` (stereo not given), for which the GI50 in the experiment on ACHN is > 100 µM (inactive); with CCRF-CEM, > 100 µM (inactive); with HCT-116, > 100 µM (inactive); in the experiment with HCT-15, over 100 µM; in the experiment on HOP-62, > 100 µM (inactive); with MOLT-4, > 100 µM (inactive). Also, the GI50 with NCI-H226, in the experiment on NCI-H23, in the experiment on NCI-H522, in the experiment with SF-295, in the experiment with SNB-75 and in the experiment on SR was > 100 µM (inactive) in each case. For the same compound, in the experiment with SW-620, the GI50 is > 100 µM (inactive).
Take `C/C(=N\Nc1nnc(S)n1N)c1c(O)cc(C)oc1=O`: the GI50 in the experiment with A549 was > 100 µM (inactive); in the experiment with ACHN it was > 100 µM (inactive); in the experiment with CCRF-CEM, > 100 µM (inactive); in the experiment with HCT-116, > 100 µM (inactive); in the experiment on HCT-15 it was over 100 µM; in the experiment with HOP-62, > 100 µM (inactive). Besides, the GI50 with MOLT-4, in the experiment on NCI-H226, in the experiment on NCI-H23, in the experiment on NCI-H522, with SF-295 and in the experiment on SNB-19 was > 100 µM (inactive) throughout. Further, the GI50 in the experiment with SNB-75, in the experiment with SR and with SW-620 was > 100 µM (inactive) each time.
`O=C(CCN(C(=O)O)S(=O)(=O)c1ccc(NC(=O)c2ccccc2)cc1)Nc1ccccc1`: the GI50 in the experiment on A549 is > 46.5 µM (inactive); in the experiment on ACHN it was > 100 µM (inactive); with CCRF-CEM, > 61.7 µM (inactive); in the experiment on HCT-116 it was > 56.6 µM (inactive); in the experiment with HCT-15, over 58.6 µM; with HOP-62, > 100 µM (inactive). Also, the GI50 with MOLT-4 is > 64.6 µM (inactive); in the experiment on NCI-H226, > 100 µM (inactive); with NCI-H23 it was > 100 µM (inactive); in the experiment with NCI-H522, > 100 µM (inactive); with SF-295, > 100 µM (inactive); in the experiment on SNB-19, > 100 µM (inactive). In addition, the figures for the GI50 in the experiment with SNB-75, in the experiment with SR and in the experiment on SW-620 were > 100 µM (inactive), 15.8 µM (inactive) and > 55 µM (inactive), respectively.
In the case of `CC1=NN2C(c3ccc([N+](=O)[O-])cc3)=CSC2=NC(C)(C)C1`, the GI50 was > 100 µM (inactive) with A549; > 100 µM (inactive) in the experiment with ACHN; > 100 µM (inactive) in the experiment on CCRF-CEM; > 100 µM (inactive) in the experiment on HCT-116; over 100 µM in the experiment with HCT-15; > 100 µM (inactive) in the experiment on HOP-62. Also, the GI50 in the experiment on MOLT-4, in the experiment on NCI-H226, in the experiment on NCI-H23, with NCI-H522, in the experiment on SF-295 and in the experiment on SNB-19 was > 100 µM (inactive) each time. The GI50 in the experiment with SNB-75, in the experiment with SR and with SW-620 was > 100 µM (inactive) throughout.
Turning to `C/C=C/CC(S(=O)(=O)c1ccccc1)S(=O)(=O)c1ccccc1`, the GI50 in the experiment with A549 was > 100 µM (inactive); in the experiment on ACHN it was > 100 µM (inactive); in the experiment with CCRF-CEM, 87.1 µM (inactive); in the experiment on HCT-116, > 100 µM (inactive); with HCT-15, 60 µM; in the experiment with HOP-62, 85.5 µM (inactive). Also, the GI50 in the experiment with MOLT-4 is > 100 µM (inactive); in the experiment with NCI-H226, > 100 µM (inactive); with NCI-H23, > 100 µM (inactive); in the experiment with NCI-H522 it was 12 µM (inactive); in the experiment on SF-295, > 100 µM (inactive); in the experiment with SNB-19, > 100 µM (inactive). The GI50 in the experiment on SNB-75 is 32.7 µM (inactive); with SR, > 100 µM (inactive); with SW-620 it was > 100 µM (inactive).
With `C=C1CCC2C(C)(CO)C(O)CCC2(C)C1CC(O)/C(=C/CO)C(=O)O` (stereo not given), the GI50 was > 100 µM (inactive) in the experiment on A549; > 100 µM (inactive) in the experiment with ACHN; > 100 µM (inactive) in the experiment on CCRF-CEM; > 100 µM (inactive) in the experiment on HCT-116; over 100 µM with HCT-15; > 100 µM (inactive) in the experiment on HOP-62. For the same compound, the GI50 with MOLT-4, in the experiment on NCI-H522, in the experiment with SF-295, in the experiment with SNB-19, in the experiment on SNB-75 and in the experiment on SR was > 100 µM (inactive) in each case. In the experiment with SW-620, the GI50 was > 100 µM (inactive).
Consider `NC(=O)c1ncn(CCN2CCN(C(=O)NCCCCCCNC(=O)N3CCN(CCn4cnc(C(N)=O)c4N)CC3)CC2)c1N`, for which the GI50 in the experiment with A549 is > 100 µM (inactive); in the experiment with ACHN, > 100 µM (inactive); with CCRF-CEM, > 100 µM (inactive); in the experiment on HCT-116 it was > 100 µM (inactive); in the experiment with HCT-15 it was over 100 µM; with HOP-62 it was > 100 µM (inactive). The GI50 in the experiment with MOLT-4, with NCI-H226, in the experiment on NCI-H23, in the experiment with SF-295, with SNB-19 and with SNB-75 was > 100 µM (inactive) each time. In addition, the GI50 with SR and in the experiment on SW-620 was > 100 µM (inactive) each time.
With `CC1=C(C(=O)Nc2ccccc2)C(c2ccccc2Cl)C(C(=O)Nc2ccccc2)=C(C)N1`, the GI50 is 41.6 µM (inactive) in the experiment on A549; 30.5 µM (inactive) in the experiment with ACHN; 32 µM (inactive) in the experiment on CCRF-CEM; 22.6 µM (inactive) in the experiment on HCT-116; 20 µM in the experiment with HCT-15; 20.1 µM (inactive) in the experiment with HOP-62. The GI50 with MOLT-4 was 17.4 µM (inactive); in the experiment with NCI-H226, 22.2 µM (inactive); in the experiment on NCI-H23, 26.4 µM (inactive); with NCI-H522, 19.6 µM (inactive); in the experiment with SF-295, 25.4 µM (inactive); in the experiment with SNB-19, 24.8 µM (inactive). In addition, the GI50 is 28.1 µM (inactive) in the experiment with SNB-75, 25.8 µM (inactive) in the experiment on SR and 30.7 µM (inactive) in the experiment on SW-620.
For `O=C1C(=O)N(c2ccc(Cl)c(Cl)c2)C(=O)C(=O)C1c1nc2ccccc2s1`, the GI50 in the experiment with A549 is > 100 µM (inactive); in the experiment on ACHN it was > 100 µM (inactive); with CCRF-CEM, 38.2 µM (inactive); in the experiment on HCT-116 it was > 100 µM (inactive); in the experiment on HCT-15 it was 87.1 µM; with HOP-62, > 100 µM (inactive). For the same compound, the GI50 in the experiment on MOLT-4 was > 100 µM (inactive); with NCI-H226, 88.7 µM (inactive); in the experiment with NCI-H23, > 100 µM (inactive); in the experiment on NCI-H522, > 100 µM (inactive); in the experiment on SF-295 it was > 100 µM (inactive); in the experiment on SNB-19, 44 µM (inactive). In addition, the GI50 in the experiment on SNB-75, in the experiment with SR and in the experiment with SW-620 was > 100 µM (inactive) throughout.
Take `O=C(O)c1cc2c(ncc3c(=O)n(-c4ccccc4)[nH]c32)s1`: the GI50 is > 100 µM (inactive) in the experiment with A549; > 100 µM (inactive) in the experiment with ACHN; > 100 µM (inactive) in the experiment on CCRF-CEM; > 100 µM (inactive) with HCT-116; over 100 µM in the experiment with HCT-15; > 100 µM (inactive) in the experiment with HOP-62. Besides, the GI50 in the experiment with MOLT-4 is > 100 µM (inactive); in the experiment on NCI-H226 it was > 100 µM (inactive); in the experiment on NCI-H23, > 100 µM (inactive); with NCI-H522, > 100 µM (inactive); in the experiment with SNB-19, > 10 µM (inactive); with SR it was > 100 µM (inactive). The GI50 with SW-620 was > 100 µM (inactive).
In the case of `C[Si](C)(C)[C@@]1([Se]c2ccccc2)CC[C@@H]1C(=O)c1ccccc1`, the GI50 in the experiment with A549 is 56.2 µM (inactive); in the experiment with ACHN, 54 µM (inactive); in the experiment on CCRF-CEM it was 27.7 µM (inactive); with HCT-116, 33.6 µM (inactive); in the experiment on HCT-15 it was 45.8 µM; in the experiment on HOP-62 it was > 100 µM (inactive). Besides, the GI50 in the experiment on MOLT-4 was 21.3 µM (inactive); in the experiment with NCI-H226, 40.2 µM (inactive); with NCI-H23, 33.7 µM (inactive); with NCI-H522, 23.7 µM (inactive); in the experiment with SF-295 it was 51.3 µM (inactive); with SNB-19, 35.8 µM (inactive). Also, the GI50 was 61 µM (inactive) with SNB-75 and 53 µM (inactive) with SW-620.

As usually defined, the GI50 is the concentration at which growth is held to half of that of the control.
